Data taken from patent US10947242B2, “[1,2,4]triazolo[1,5and#8208;A]pyrimidine compounds as PDE2 inhibitors” (Janssen Pharmaceutica NV, priority 2016, dated 2021).
Like-named read-outs stand apart in the source and are kept apart here.

Experiments:
Type in all cases: biochemical
[1] = biological target: T1, Human recombinant PDE3A (hPDE3A) (Homo sapiens, UniProt Q14432); experiment: In vitro assay PDE3A (SPA, 3H-cAMP hydrolysis); conditions: for IC50: hPDE3B pIC50, read-out: pIC50 (converted); for Emax: read-out: hPDE3B Emax, read-out: Emax;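 as to all read-outs here: the method names PDE3A and the table heading PDE3B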
T1 construct: purchased Scottish Biomedical; host or cells: Sf9 insect cells
In short: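 Radiometric SPA measuring [3H]-cAMP hydrolysis (0.4 μM cAMP, 2.4 μCi/ml) over 60 min at room temperature, in Tris pH 7.8 buffer with MgCl2 and EGTA, 1% DMSO. Enzyme: recombinant human brain PDE3A expressed in Sf9 cells, used as partially purified lysate. Counts compared with enzyme-free blanks and vehicle controls.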

[2] = biological target: T2, Human recombinant PDE2A (hPDE2A) (Homo sapiens, UniProt O00408); experiment: In vitro assay PDE2A (SPA, 3H-cGMP hydrolysis); conditions: for Emax: read-out: hPDE2A Emax; for IC50: read-out: hPDE2A pIC50 (converted)
T2 construct: His tag (inferred from metal chelate purification); made in house; host or cells: Sf9 insect cells (baculovirus)

[3] = biological target: T3, Human recombinant PDE10A (hPDE10A) (Homo sapiens, UniProt Q9Y233); experiment: In vitro assay PDE10A, human clone (SPA, 3H-cAMP hydrolysis)
T3 construct: His tag (inferred from metal chelate purification); made in house; host or cells: Sf9 insect cells (baculovirus)
In short: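 Hydrolysis of 3H-cAMP (60 nM cAMP, 0.008 μCi tracer) proceeded for 60 min at room temperature, with the product detected by SPA bead scintillation counting. The enzyme was hPDE10A from baculovirus-infected Sf9 cells in Tris pH 7.8 buffer with MgCl2 and EGTA, and compounds were at 1% DMSO final. Blanks lacked enzyme.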

[4] = human clone by default (no (r) mark), read-out: hPDE10A2 or rPDE10A2 Emax
[5] = human clone by default (no (r) mark), read-out: hPDE10A2 or rPDE10A2 pIC50 (converted)
[6] = human recombinant PDE2A, 10 μM cGMP substrate
[7] = human clone (h), default, read-out: hPDE10A2 Emax
[8] = human clone (h), default, read-out: hPDE10A2 pIC50 (converted)

T2 sequence (O00408 whole entry): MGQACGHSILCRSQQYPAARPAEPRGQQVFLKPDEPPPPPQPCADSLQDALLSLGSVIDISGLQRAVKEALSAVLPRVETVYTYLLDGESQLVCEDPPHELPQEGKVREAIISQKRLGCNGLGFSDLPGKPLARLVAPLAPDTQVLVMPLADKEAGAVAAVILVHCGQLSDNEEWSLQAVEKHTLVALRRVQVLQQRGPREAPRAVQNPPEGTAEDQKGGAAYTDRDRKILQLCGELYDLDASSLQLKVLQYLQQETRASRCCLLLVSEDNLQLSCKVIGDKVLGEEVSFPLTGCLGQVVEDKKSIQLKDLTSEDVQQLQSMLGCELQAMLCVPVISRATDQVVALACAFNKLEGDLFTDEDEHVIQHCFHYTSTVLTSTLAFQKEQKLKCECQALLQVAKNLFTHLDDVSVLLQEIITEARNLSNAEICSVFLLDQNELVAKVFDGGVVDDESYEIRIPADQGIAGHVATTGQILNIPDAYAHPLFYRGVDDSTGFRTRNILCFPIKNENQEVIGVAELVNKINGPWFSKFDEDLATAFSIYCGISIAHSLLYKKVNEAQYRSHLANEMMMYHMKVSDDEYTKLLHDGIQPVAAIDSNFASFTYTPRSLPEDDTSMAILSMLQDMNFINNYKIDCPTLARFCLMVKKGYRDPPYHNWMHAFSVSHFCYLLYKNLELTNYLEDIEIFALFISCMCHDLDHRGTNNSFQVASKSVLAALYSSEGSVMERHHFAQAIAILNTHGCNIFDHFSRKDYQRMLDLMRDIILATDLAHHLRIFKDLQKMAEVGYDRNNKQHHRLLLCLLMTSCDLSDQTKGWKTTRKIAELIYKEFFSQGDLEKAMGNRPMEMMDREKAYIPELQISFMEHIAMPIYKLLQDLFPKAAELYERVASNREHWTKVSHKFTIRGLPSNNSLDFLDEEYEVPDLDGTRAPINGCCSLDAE
T3 sequence (Q9Y233 267-1055): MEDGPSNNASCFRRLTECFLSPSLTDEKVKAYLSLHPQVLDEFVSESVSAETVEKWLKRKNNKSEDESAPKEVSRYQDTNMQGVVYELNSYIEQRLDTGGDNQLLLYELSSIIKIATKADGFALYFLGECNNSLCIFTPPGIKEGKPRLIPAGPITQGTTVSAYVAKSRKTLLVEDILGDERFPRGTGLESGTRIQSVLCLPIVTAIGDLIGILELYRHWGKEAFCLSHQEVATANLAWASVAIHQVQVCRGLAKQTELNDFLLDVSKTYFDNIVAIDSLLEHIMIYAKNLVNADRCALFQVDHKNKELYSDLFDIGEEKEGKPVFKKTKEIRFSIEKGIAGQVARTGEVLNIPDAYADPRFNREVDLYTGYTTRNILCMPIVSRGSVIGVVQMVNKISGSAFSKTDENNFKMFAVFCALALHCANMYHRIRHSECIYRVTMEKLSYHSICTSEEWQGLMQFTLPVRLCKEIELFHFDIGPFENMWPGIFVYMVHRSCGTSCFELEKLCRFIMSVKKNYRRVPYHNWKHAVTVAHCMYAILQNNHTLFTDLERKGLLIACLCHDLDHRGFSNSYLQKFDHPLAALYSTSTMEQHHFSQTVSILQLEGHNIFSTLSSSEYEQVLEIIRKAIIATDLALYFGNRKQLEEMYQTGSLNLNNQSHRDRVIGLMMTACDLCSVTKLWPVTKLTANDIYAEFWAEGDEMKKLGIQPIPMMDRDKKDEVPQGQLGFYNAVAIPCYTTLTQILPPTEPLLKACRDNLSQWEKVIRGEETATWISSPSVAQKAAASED
T1 sequence (Q14432 whole entry): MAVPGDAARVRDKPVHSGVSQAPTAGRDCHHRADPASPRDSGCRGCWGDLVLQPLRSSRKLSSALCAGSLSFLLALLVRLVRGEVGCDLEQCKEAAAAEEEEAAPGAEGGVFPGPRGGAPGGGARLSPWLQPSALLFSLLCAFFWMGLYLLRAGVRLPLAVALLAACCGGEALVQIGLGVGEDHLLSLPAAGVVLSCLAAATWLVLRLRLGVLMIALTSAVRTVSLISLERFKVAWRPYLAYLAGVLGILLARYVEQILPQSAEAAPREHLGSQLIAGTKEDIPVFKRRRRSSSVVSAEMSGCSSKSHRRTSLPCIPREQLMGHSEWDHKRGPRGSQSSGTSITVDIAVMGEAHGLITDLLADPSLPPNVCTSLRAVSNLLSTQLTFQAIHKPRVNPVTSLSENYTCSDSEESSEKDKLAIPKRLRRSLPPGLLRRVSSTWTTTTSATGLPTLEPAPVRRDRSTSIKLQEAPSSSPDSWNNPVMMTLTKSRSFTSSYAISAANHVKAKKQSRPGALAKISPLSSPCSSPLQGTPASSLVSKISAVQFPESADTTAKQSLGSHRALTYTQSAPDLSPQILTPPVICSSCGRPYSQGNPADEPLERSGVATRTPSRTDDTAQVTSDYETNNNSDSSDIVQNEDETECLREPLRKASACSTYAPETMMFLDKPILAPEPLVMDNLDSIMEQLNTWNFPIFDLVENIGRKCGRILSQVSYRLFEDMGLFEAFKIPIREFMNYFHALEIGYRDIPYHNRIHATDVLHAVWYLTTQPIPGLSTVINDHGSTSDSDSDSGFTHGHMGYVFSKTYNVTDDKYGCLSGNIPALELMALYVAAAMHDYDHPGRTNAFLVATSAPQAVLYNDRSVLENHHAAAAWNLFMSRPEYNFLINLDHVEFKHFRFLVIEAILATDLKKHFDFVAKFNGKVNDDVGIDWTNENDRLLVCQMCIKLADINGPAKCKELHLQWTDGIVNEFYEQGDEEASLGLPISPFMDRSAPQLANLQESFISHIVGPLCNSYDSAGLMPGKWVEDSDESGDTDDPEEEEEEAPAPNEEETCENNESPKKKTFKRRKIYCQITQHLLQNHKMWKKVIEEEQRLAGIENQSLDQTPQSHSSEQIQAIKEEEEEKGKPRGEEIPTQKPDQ

What does the source list for `O=C(c1nc2ccccc2o1)N1[C@H]2CC[C@H](c3cc(C(F)F)nc4ncnn34)[C@@H]1CC2` [Compound 304]?
IC50 [1]: 9120 nM; Emax [1]: 48%; Emax [2]: 100%; IC50 [2]: 39.8 nM; Emax [3, 4]: 45%; IC50 [3, 5]: > 10000 nM

Which “hPDE3B Emax” value [1] does the source give for `Cc1cc(C(=O)N2CC[C@H](C)[C@@H](c3cc(C#N)nc4ncnn34)C2)cc(C)n1` [Compound 26b] here?
The value was 41.

What about the “hPDE2A Emax” value [2] of the same molecule?
The value was 98.

And the “hPDE2A pIC50” value [2]?
The value was 8.17.

What about the “hPDE2A Emax” value ([2]; human recombinant PDE2A) of the same molecule?
The value was 98.

What about the “hPDE2A pIC50” value [2, 6] of the same molecule?
The value was 8.17.

And the “hPDE10A2 Emax” value ([3]; human clone (h), default)?
Its value is 95.

And the “hPDE10A2 pIC50” value ([3]; human clone (h), default)?
The value was 6.63.

Which results are given for `Cc1cc2ccc(C(=O)N3CC[C@@H](C)[C@H](c4cc(C(F)F)nc5ncnn45)C3)cn2c1` [Compound 289]?
IC50 [1]: 178 nM; Emax [1]: 98%; Emax [2]: 100%; IC50 [2]: 2.4 nM; Emax [3, 4]: 99%; IC50 [3, 5]: 63.1 nM

`COc1nc(C2CC2)cc(C(=O)N2CC[C@@H](C)[C@H](c3cc(C(F)F)nc4ncnn34)C2)c1F` [Compound 276] was tested. Which IC50 [1] did it give?
The IC50 was 1290 nM.

What about the Emax [1] of the same molecule?
Its Emax is 93%.

What about the Emax [2] of the same molecule?
The Emax was 100%.

And the IC50 [2]?
Its IC50 is 2.24 nM.

And the Emax [3, 4]?
Its Emax is 98%.

What about the IC50 [3, 5] of the same molecule?
Its IC50 is 166 nM.

With `Cc1cc(C(=O)N2CC[C@@H](C)[C@H](c3cc(C(F)F)nc4ncnn34)C2)c(C)s1` [Compound 65] as the molecule, how does the IC50 [1] read?
Its IC50 is 6760 nM.

And the Emax [1]?
The Emax was 70%.

What about the IC50 [2, 6] of the same molecule?
The IC50 was 1.26 nM.

And the Emax ([2]; human recombinant PDE2A)?
Its Emax is 100%.

And the Emax [2]?
The Emax was 100%.

And the IC50 [2]?
Its IC50 is 1.26 nM.

What about the Emax [3, 7] of the same molecule?
Its Emax is 95%.

What about the IC50 [3, 8] of the same molecule?
The IC50 was 251 nM.

With `COc1c(F)cc(C(=O)N2[C@H]3CC[C@H](c4cc(C(F)F)nc5ncnn45)[C@@H]2CC3)cc1F` [Compound 359] as the molecule, how does the IC50 [1] read?
Its IC50 is 3980 nM.

What about the Emax [1] of the same molecule?
The Emax was 71%.

And the Emax [2]?
Its Emax is 99%.

And the IC50 [2]?
Its IC50 is 12 nM.

What about the Emax [3, 4] of the same molecule?
The Emax was 86%.

And the IC50 [3, 5]?
Its IC50 is 2140 nM.

For `Cc1cc(C(=O)N2CC[C@@H](C)[C@H](c3cc(C(F)F)nc4ncnn34)C2)nc(C)n1` [Compound 141], which IC50 [1] is on record?
Its IC50 is > 10000 nM.

What about the Emax [1] of the same molecule?
The Emax was 12%.

What about the IC50 [2, 6] of the same molecule?
The IC50 was 29.5 nM.

What about the Emax ([2]; human recombinant PDE2A) of the same molecule?
Its Emax is 100%.

What about the Emax [2] of the same molecule?
Its Emax is 100%.

What about the IC50 [2] of the same molecule?
The IC50 was 29.5 nM.

And the Emax [3, 7]?
Its Emax is 81%.

What about the IC50 [3, 8] of the same molecule?
The IC50 was 2040 nM.

Which results are given for `C[C@@H]1CCN(C(=O)c2nccnc2Cl)C[C@H]1c1cc(C(F)F)nc2ncnn12` [Compound 237]?
IC50 [1]: > 10000 nM; Emax [1]: 20%; IC50 [2, 6]: 186 nM; Emax ([2]; human recombinant PDE2A): 97%; Emax [2]: 97%; IC50 [2]: 186 nM; Emax [3, 7]: 51%; IC50 [3, 8]: 8130 nM; Emax [3, 4]: 51%; IC50 [3, 5]: 8130 nM

What does the source list for `C[C@@H]1CCN(C(=O)c2cccnc2N)C[C@H]1c1cc(C(F)F)nc2ncnn12` [Compound 150]?
IC50 [1]: > 10000 nM; Emax [1]: 22%; IC50 [2, 6]: 39.8 nM; Emax ([2]; human recombinant PDE2A): 100%; Emax [2]: 100%; IC50 [2]: 39.8 nM; Emax [3, 7]: 72%; IC50 [3, 8]: 3550 nM

Which IC50 [1] does the source give for `Cc1cc([C@@H]2CN(C(=O)c3cnc4ccc(C(F)(F)F)cn34)CC[C@H]2C)n2ncnc2n1` [Compound 20] here?
The IC50 was 4270 nM.

And the Emax [1]?
Its Emax is 74%.

And the IC50 [2, 6]?
The IC50 was 12 nM.

And the Emax ([2]; human recombinant PDE2A)?
Its Emax is 101%.

What about the Emax [2] of the same molecule?
The Emax was 101%.

And the IC50 [2]?
The IC50 was 12 nM.

What about the Emax [3, 7] of the same molecule?
Its Emax is 98%.

What about the IC50 [3, 8] of the same molecule?
Its IC50 is 132 nM.

Which results are given for `Cc1cc([C@@H]2CN(C(=O)c3cnc(Cl)c(Cl)c3)CC[C@H]2C)n2ncnc2n1` [Compound 17]?
IC50 [1]: 4270 nM; Emax [1]: 74%; IC50 [2, 6]: 4.9 nM; Emax ([2]; human recombinant PDE2A): 99%; Emax [2]: 99%; IC50 [2]: 4.9 nM; Emax [3, 7]: 97%; IC50 [3, 8]: 81.3 nM

For `C[C@@H]1CCN(C(=O)c2ccc3ccccc3n2)C[C@H]1c1cc(C(F)F)nc2ncnn12` [Compound 323], which IC50 [1] is on record?
Its IC50 is 724 nM.

What about the Emax [1] of the same molecule?
Its Emax is 95%.

And the Emax [2]?
The Emax was 100%.

And the IC50 [2]?
Its IC50 is 3.89 nM.

And the Emax [3, 4]?
Its Emax is 97%.

And the IC50 [3, 5]?
The IC50 was 224 nM.

For `C/C(=C\c1ccccc1)C(=O)N1[C@H]2CC[C@H](c3cc(C(F)F)nc4ncnn34)[C@@H]1CC2` [Compound 371], which IC50 [1] is on record?
The IC50 was 389 nM.

And the Emax [1]?
The Emax was 96%.

And the Emax [2]?
Its Emax is 101%.

And the IC50 [2]?
Its IC50 is 13.8 nM.

And the Emax [3, 4]?
The Emax was 98%.

And the IC50 [3, 5]?
Its IC50 is 389 nM.
